Results from US6727076B2 (priority 1995, dated 2004).
Values after ≈ are worked out from the molar mass of the structure shown. Where two headings read alike, the source gives them in different places.

What was measured:
E. coli MG1655 = assay type: cell-based
E. coli = assay type: cell-based
[1] = test system: E. coli 287 (ATCC #11775); assay type: cell-based
[2] = test system: E. coli strain 14445 (MG1655 himA); assay type: cell-based
T. harzianum DAOM 190830 = assay type: cell-based, Trichoderma harzianum
[3] = test system: Staphylococcus aureus (ATCC #29213); assay: microbe, parasite or virus in culture; assay type: cell-based
[4] = test system: Escherichia coli (ATCC#25922); assay: microbe, parasite or virus in culture; assay type: cell-based
[5] = test system: E. coli strain 11547 (O157:H7); assay type: cell-based
[6] = test system: E. coli strain 6321 (MG1655); assay type: cell-based; also: key: '+' indicates that the organism tested was capable of utilizing the carbon source listed; '−' indicates that the organism tested was not capable of utilizing the carbon source listed; 'w' indicates weak positive reactions
[7] = test system: E. coli strain 13675 (O157); assay type: cell-based
[8] = test system: E. coli strain 6320 (W3110); assay type: cell-based; also: key: '+' indicates that the organism tested was capable of utilizing the carbon source listed; '−' indicates that the organism tested was not capable of utilizing the carbon source listed; 'w' indicates weak positive reactions
[9] = test system: E. coli strain 14444 (MG1655 xylA); assay type: cell-based
[10] = test system: E. coli strain 14443 (MG1655 (FB426)); assay type: cell-based; also: key: '+' indicates that the organism tested was capable of utilizing the carbon source listed; '−' indicates that the organism tested was not capable of utilizing the carbon source listed; 'w' indicates weak positive reactions
[11] = test system: E. coli strain 13671 (O157:H? gur+); assay type: cell-based
[12] = test system: E. coli strain 6322 (EMG2 (K12, λF+)); assay type: cell-based; also: key: '+' indicates that the organism tested was capable of utilizing the carbon source listed; '−' indicates that the organism tested was not capable of utilizing the carbon source listed; 'w' indicates weak positive reactions
[13] = test system: E. coli strain 13673 (O157); assay type: cell-based
S. typhimurium hisF645 = assay type: cell-based, Salmonella typhimurium
[14] = Staphylococcus aureus, ATCC29213, 18 h
[15] = Escherichia coli, ATCC25922, 18 h

SMILES	suitability as nitrogen source (growth, purple color) (E. coli MG1655)	use as carbon source (E. coli)	carbon source utilization result [1]	carbon source utilization result (T. harzianum DAOM 190830)	other results
N[C@@H](CC(=O)O)C(=O)O [L-aspartic acid]	positive	can use	positive	–	–
N[C@H](CO)C(=O)O [D-serine]	not suitable	can use	positive	–	–
N[C@@H](CCC(=O)O)C(=O)O [L-glutamic acid]	positive	can use	–	positive	carbon source utilization, in words [2]: negative
NC[C@H]1O[C@H](O[C@H]2[C@H](O)[C@@H](O[C@H]3O[C@H](CO)[C@@H](O)[C@H](N)[C@H]3O)[C@H](N)C[C@@H]2N)[C@H](O)[C@@H](O)[C@@H]1O [Kanamycin, kanamycin]	–	–	–	–	MIC [3, 14]: 16 to 32 µg/mL (≈ 33 to 66 µM); MIC [4]: 8 to 16 µg/mL; MIC [4, 15]: 16 to 32 µg/mL (≈ 33 to 66 µM)
N[C@@H](CO)C(=O)O [L-serine]	not suitable	can use	positive	positive	–
C[C@H](N)C(=O)O [L-alanine]	not suitable	can use	positive	positive	–
NC(=O)CC[C@H](N)C(=O)O [L-glutamine]	positive	can use	–	–	–
CC1(C)S[C@@H]2[C@H](NC(=O)[C@H](N)c3ccccc3)C(=O)N2[C@H]1C(=O)O [Ampicillin, ampicillin]	–	–	–	–	MIC [3]: 1 to 2 µg/mL; MIC [3, 14]: 1 to 4 µg/mL (≈ 2.86 to 11.4 µM); MIC [4]: 2 to 4 µg/mL; MIC [4, 15]: 1 to 2 µg/mL (≈ 2.86 to 5.72 µM)
NC(=O)C[C@H](N)C(=O)O [L-asparagine]	positive	can use	positive	positive	–
OC[C@H]1O[C@H](OCC2O[C@@H](O)[C@H](O)[C@@H](O)[C@@H]2O)[C@H](O)[C@@H](O)[C@H]1O (stereo partly drawn) [D-melibiose]	–	–	positive	positive	carbon source utilization [5]: +; carbon source utilization [6]: +; carbon source utilization [7]: +; carbon source utilization [2]: +; carbon source utilization [8]: +; carbon source utilization [9]: +; carbon source utilization [10]: +; carbon source utilization [11]: +; carbon source utilization [12]: +; carbon source utilization [13]: +
CN(C)[C@@H]1C(O)=C(C(N)=O)C(=O)[C@@]2(O)C(O)=C3C(=O)c4c(O)cccc4[C@@](C)(O)[C@H]3C[C@@H]12 [Tetracycline, tetracycline]	–	–	–	–	MIC [3]: 0.25 to 1 µg/mL; MIC [3, 14]: 0.25 to 2 µg/mL (≈ 0.563 to 4.5 µM); MIC [4, 15]: 0.5 to 1 µg/mL (≈ 1.13 to 2.25 µM)
C[C@H](O)[C@@H](N)C(=O)O [D-threonine]	–	can use	–	–	–
COC1OC(CO)C(O)C(O)C1O (stereo not drawn) [β-methyl glucoside]	–	–	positive	positive	carbon source utilization [5]: +; carbon source utilization [6]: +; carbon source utilization [7]: +; carbon source utilization [2]: +; carbon source utilization [8]: +; carbon source utilization [9]: +; carbon source utilization [10]: +; carbon source utilization [11]: +; carbon source utilization [12]: +; carbon source utilization [13]: +
O=C(O)[C@@H]1CCCN1 [L-proline]	positive	can use	–	positive	carbon source utilization, in words [9]: negative
N[C@H](CC(=O)O)C(=O)O [D-aspartic acid]	not suitable	can use	–	–	–
C[C@@H](N)C(=O)O [D-alanine]	positive	can use	positive	–	–
C[C@@H](O)[C@H](N)C(=O)O [L-threonine]	not suitable	can use	–	–	carbon source utilization, in words [2]: negative; carbon source utilization, in words [9]: negative
N[C@@H](Cc1c[nH]cn1)C(=O)O [L-histidine]	not suitable	–	negative	–	growth stimulation by supplement (well color) (S. typhimurium hisF645): turned purple
